Columns and labels:
[1] = test system: MB49-Luc tumor; assay: MB49-Luc tumor bearing mice; format: in vivo, C57BL/6 mice; settings: 100 μg intra-tumoral Days 1, 3, 6, 9 plus 10 Gy radiation Day 0; by Day 20; vs vehicle alone, 10 Gy + vehicle, or Example 15B + vehicle
Source text: The efficacy of the TREX1 inhibitors of the present invention can also be measured in a variety of in vivo assays. Exemplary mammals that can provide models to test the effectiveness of the TREX1 inhibitors of the present invention as anticancer agents include, but are not limited to, mice. Models of tumor growth and other tumor measurements can be used to assess the effectiveness of the anticancer agents described in the current invention. Example F describes an in vivo model of tumor growth in C57BL/6 mice. Compounds of the present invention can be tested in this model for their ability to inhibit growth of tumors. Compounds of the present invention can be used in combinatorial strategies to maximizing the immunogenicity of radiation therapy (Vanpouille-Box (2017) Nature Commun. 8, 81658). […] Ten week old female C57BL/6 mice were purchased from Jackson Laboratory (www.jax.org). During the study, the care and use of animals was conducted in accordance with the regulations of the Association for Assessment and Accreditation of Laboratory 15 Animal Care (AAALAC). […] Tumors were measured in two dimensions using calipers. Tumor volumes were calculated using the formula: volume (mm3)=(length×width2)/2. […]

[2] = biological target: human TREX1 (Homo sapiens (Human), UniProt Q9NSU2); assay: TREX1 Exonuclease Assay; format: biochemical
Protocol: For human TREX1, the nucleotide sequence of the gene construct was codon optimized for expression in the bacterial host. The sequence was incorporated into the pMAL-c5e vector (NEB) downstream of a solubility-promoting MBP (maltose binding protein) fusion partner. The fusion protein product was expressed in E. coli strain BL21 (DE3) (Millipore) and purified in a series of chromatographic steps. Initial steps were conducted using a dextrin sepharose affinity column followed by a Q-sepharose ion exchange column (both GE Healthcare). After the second column the MBP partner was removed by incubation with enterokinase (NEB). Further purification was carried out with the second application of a Q-sepharose column followed by a Superdex 75 (GE Healthcare) size exclusion column. Finally, a heparin sepharose column (GE Healthcare) was applied to remove contaminating nucleotides.
To evaluate the effect of compounds on TREX1 activity, test compounds were serially diluted (11-point, 3-fold) from 10 mM stock solutions and delivered to 384-well low-volume assay plates in 80 nL DMSO using an acoustic dispenser. Next, 4 μL of human TREX1 (0.5 nM), or murine TREX1 (1 nM), diluted in assay buffer (20 mM Tris pH 7.5, 5 mM MgCl2, 100 μg/mL BSA, 0.002% Triton X-100, 2 mM DTT), was added to the assay plate. After incubating for 30 minutes, 4 μL of labeled DNA oligonucleotide (500 nM) in assay buffer was added to initiate TREX1 exonuclease activity. The reaction was allowed to proceed for 45 minutes at room temperature prior to the addition of 4 μL of 150 mM EDTA to halt TREX1 activity.

[3] = test system: THP1 Dual cells, ISRE Lucia reporter gene, transfected with G3-YSD DNA; assay: Human Cellular EC50 Reporter Assay; format: cell-based; settings: 72 h, serum-starved cells transfected with G3-YSD 10 ng/ml, three days
Source text: Example E is a cell-based assay for TREX1 inhibitors using THP1 Dual™ cells (Invivogen), a human monocyte cell line that has stable integration of an Interferon Stimulated Response Element (ISRE) Lucia reporter gene. The Lucia gene encodes a secreted luciferase reporter protein, under the control of an ISG54 minimal promoter in conjunction with five IFN-stimulated response elements. Activation of the cGAS-STING pathway in THP1 Dual™ cells leads to enhanced luciferase secretion and increased luminescence.
A cell-based assay was established using THP1 Dual™ cells (InvivoGen), a human monocyte cell line that has stable integration of an Interferon Stimulated Response Element (ISRE) Lucia reporter gene. The Lucia gene encodes a secreted luciferase reporter protein, under the control of an ISG54 minimal promoter in conjunction with five IFN-stimulated response elements. Activation of the cGAS-STING pathway in these cells leads to enhanced luciferase secretion. Three days prior to the assay, cells were transferred to a T75 flask at a density of 3.0×10^5 cells/ml in 20 ml of serum-starved media (RPMI 1640 containing 1% Heat-Inactivated FBS, 1× Glutagro, 10 mM HEPES, 1 mM sodium pyruvate, 1×Pen/Strep, 100 μg/ml Normocin, 100 μg/ml Zeocin, 10 μg/ml Blasticidin). On the day of assay cells were collected by centrifugation, washed in 1×DPBS, and resuspended in the 1% serum media at 3.3×10^5 cells/ml. An aliquot of an aqueous solution of the DNA oligonucleotide G3-YSD (InvivoGen) at 1 mg/ml was diluted 100-fold into the transfection reagent LyoVec (InvivoGen) and incubated at ambient temperature for 50 min to allow complex formation. Test compounds in DMSO were transferred to a standard 96-well tissue culture plate via acoustic dispense of 0.54 μl per well. Serum-starved cells were batch transfected with complex at a final DNA concentration of 10 ng/ml for 60 min at ambient temperature before dispensing 180 ul (60,000 cells) per well into the assay plate. The assay plate was then incubated in a humidified chamber at 37° C. in 5% CO2 for three days. An aliquot of 10 μl was removed from each well to combine with 10 μl of the luciferase detection reagent, QUANTI-Luc™ Gold (InvivoGen) in a white 384-well plate. The luminescent signal was then read using an EnVision plate reader (Perkin Elmer). An EC50 for each compound was determined by plotting the signal as a function of log molar concentration and fitting to a four parameter logistic equation. (see Table 32).

human TREX1, sequence (Q9NSU2 whole entry, the tested form may be a part): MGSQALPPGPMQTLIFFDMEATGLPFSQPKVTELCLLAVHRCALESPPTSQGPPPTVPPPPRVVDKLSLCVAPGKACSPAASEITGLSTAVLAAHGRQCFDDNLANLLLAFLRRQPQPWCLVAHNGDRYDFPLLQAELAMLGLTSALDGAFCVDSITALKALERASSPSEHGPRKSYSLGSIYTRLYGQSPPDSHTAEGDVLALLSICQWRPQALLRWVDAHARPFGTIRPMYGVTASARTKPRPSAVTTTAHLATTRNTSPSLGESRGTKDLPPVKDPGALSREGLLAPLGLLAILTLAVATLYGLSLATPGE

| SMILES | Tumor volume [1] | IC50 [2] [µM] | EC50 [3] [µM] |
| --- | --- | --- | --- |
| N[C@@H]1C[C@H]2C(=O)N([C@H](CCC(=O)O)C(=O)NCc3ccc(Cl)c(Cl)c3)CCC(CCc3ccccc3)N2C1 (some centres unmarked) [Example 15B] | reduced tumor volumes | – | – |
| CCOc1c(CNC(=O)[C@@H](CCC(=O)O)N2CCC(CCc3ccccc3)N3C[C@H](N)C[C@H]3C2=O)ccc(Cl)c1Cl (some centres unmarked) [Example 137] | – | < 1 | < 1 |
| CC(C)Oc1c(CNC(=O)[C@@H](CCC(=O)O)N2CCC(CCc3ccccc3)N3C[C@H](N)C[C@H]3C2=O)ccc(Cl)c1Cl (some centres unmarked) [Example 138] | – | < 1 | < 1 |

Reference: patent publication US11583538B2, “Substituted pyrrolo[1,2-a]pyrazines and pyrrolo[1,2-a][1,4]diazepines as TREX1 inhibitors” (Venenum Biodesign, LLC, priority 2019, dated 2023)
